Results as given in US11072602B2, “Antidiabetic heterocyclic compounds” (Merck Sharp & Dohme Corp., priority 2016, dated 2021).

These compounds were tested against T1, human GPR40 (Homo sapiens, UniProt O14842) (assay: Inositol Phosphate Turnover (IP1) Assay). Details: HEK cells stably expressing human GPR40, 7500 cells per well, CisBio IP-One kit.
T1 construct: expressed in transfected cells
Format: cell-based
Experimental: Human GPR40 stable cell-lines were generated in HEK cells. The expression plasmids were transfected using lipofectamine (Life Technologies) following manufacturer's instructions. Stable cell-lines were generated following drug selection and single cell cloning.
The assay was performed in 384-well format. HEK cells stably expressing human GPR40 were plated at 7500 cells per well in growth medium (DMEM/10% fetal calf serum). Cell plates were then incubated 16 hours at 37 degrees in a 5% CO2 incubator. Measurement of Inositol Phosphate Turnover (IP1) was performed using the CisBio IP-One kit (Part number 62IPAPEB). After the 16 hour incubation, the growth media was removed by centrifugation using the BlueWasher (AusWasher GUI Ver. v1.0.1.8) Protocol #21-“Light Dry” and 10 ul of stimulation buffer (prepared as described in the kit) was added to each well. In a separate plate, compounds were diluted in DMSO (200-fold over the final concentration in the assay well) and 50 nl was acoustically transferred to the appropriate well in the assay cell plate. The plates were then incubated for 60 minutes at 37 degrees in a 5% CO2 incubator. 10 ul of detection buffer (also prepared as described in the IP-One kit) was added to each well and the plates were incubated at room temperature for 60 minutes in the dark. The plates were then read in a Perkin Elmer EnVision or equivalent reader able to measure FRET. Fluorescent ratio of emission at 665 and 620 nm was then converted to IP1 concentration by back calculating from an IP1 standard curve prepared at the time of the assay. Data was normalized to % activity using a reference compound and EC50s determined using a standard 4-parameter fit.

T1 sequence (O14842 whole entry): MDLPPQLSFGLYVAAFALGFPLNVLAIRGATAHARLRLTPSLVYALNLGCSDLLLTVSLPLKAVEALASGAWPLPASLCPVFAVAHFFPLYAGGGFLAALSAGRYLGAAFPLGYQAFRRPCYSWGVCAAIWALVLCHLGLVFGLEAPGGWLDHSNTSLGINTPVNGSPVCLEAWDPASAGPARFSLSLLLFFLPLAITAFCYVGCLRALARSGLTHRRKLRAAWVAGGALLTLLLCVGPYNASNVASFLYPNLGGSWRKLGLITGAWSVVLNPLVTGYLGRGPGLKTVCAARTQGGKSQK

SMILES	EC50 [nM]
C[C@H](C(=O)O)[C@H](c1ccc2c(c1)OC(CC1CCN([C@H](C)c3cc(C(F)(F)F)ccc3C(F)(F)F)CC1)CC2)C1CC1 (mixture of isomers) [Example 9, (2S,3R)-3-((RS)-2-((1-((R)-1-(2,5-bis(trifluoromethyl)phenyl)ethyl)piperidin-4-yl)-methyl)chroman-7-yl)-3-cyclopropyl-2-methylpropanoic Acid]	63.7
C[C@H](C(=O)O)[C@H](c1ccc2c(c1)OC(CC1CCN([C@@H](C)c3cc(C(F)(F)F)ccc3C(F)(F)F)CC1)CC2)C1CC1 (mixture of isomers) [Example 12, (2S,3R)-3-((RS)-2-((1-((S)-1-(2,5-bis(trifluoro-methyl)phenyl)ethyl)piperi-din-4-yl)methyl)-chroman-7-yl)-3-cyclopropyl-2-methyl-propanoic acid]	22.3
C[C@H](C(=O)O)[C@H](c1ccc2c(c1)OC(C1[C@@H]3CC[C@H]1CN([C@H](C)c1cc(C(F)(F)F)ccc1C(F)(F)F)C3)CC2)C1CC1 (mixture of isomers) [Example 22, (2S,3R)-3-(2-((1R,5S)-3-((R)-1-(2,5-bis(trifluoromethyl)phenyl)ethyl)-3-azabicyclo[3.2.1]octan-8-yl)chroman-7-yl)-3-cyclopropyl-2-methylpropanoic Acid]	45.6
C[C@H](C(=O)O)[C@H](c1ccc2c(c1)OC(C1[C@@H]3CC[C@H]1CN([C@H](C)c1cc(C(F)(F)F)ccc1C(F)(F)F)C3)CC2)C1CC1 (mixture of isomers) [Example 23, (2S,3R)-3-(2-((1R,5S)-3-((R)-1-(2,5-bis(trifluoromethyl)phenyl)ethyl)-3-azabicyclo[3.2.1]octan-8-yl)chroman-7-yl)-3-cyclopropyl-2-methylpropanoic Acid]	49.8
C[C@H](C(=O)O)[C@H](c1ccc2c(c1)OC(C1CC3CCCC(C1)N3[C@H](C)c1cc(C(F)(F)F)ccc1C(F)(F)F)CC2)C1CC1 (mixture of isomers) [Example 32, (2S,3R)-3-((RS)-2-((1R,3RS,5S)-9-((R)-1-(2,5-bis(trifluoromethyl)phenyl)ethyl)-9-azabicyclo[3.3.1]nonan-3-yl)chroman-7-yl)-3-cyclopropyl-2-methylpropanoic Acid]	171
C[C@H](C(=O)O)[C@H](c1ccc2c(c1)OC(C1CC3CCCC(C1)N3[C@@H](C)c1cc(C(F)(F)F)ccc1C(F)(F)F)CC2)C1CC1 (mixture of isomers) [Example 33, (2S,3R)-3-((RS)-2-((1R,3RS,5S)-9-((S)-1-(2,5-bis(trifluoromethyl)-phenyl)ethyl)-9-aza-bicyclo[3.3.1]-nonan-3-yl)chroman-7-yl)-3-cyclopropyl-2-methyl-propanoic acid]	750
C[C@H](C(=O)O)[C@H](c1ccc2c(c1)OC(C1[C@@H]3COC[C@H]1CN([C@@H](C)c1cc(F)ccc1C(F)(F)F)C3)CC2)C1CC1 (single isomer, unassigned) [Example 7]	11.2
C[C@H](C(=O)O)[C@H](c1ccc2c(c1)OC(C1[C@@H]3COC[C@H]1CN([C@@H](C)c1cc(F)ccc1C(F)(F)F)C3)CC2)C1CC1 (single isomer, unassigned) [Example 8]	11.2
C[C@H](C(=O)O)[C@H](c1ccc2c(c1)OC(CC1CCN([C@H](C)c3cc(C(F)(F)F)ccc3C(F)(F)F)CC1)CC2)C1CC1 (single isomer, unassigned) [Example 10, (2S,3R)-3-((R or S)-2-((1-((R)-1-(2,5-bis(trifluoromethyl)phenyl)ethyl)piperidin-4-yl)-methyl)chroman-7-yl)-3-cyclopropyl-2-methylpropanoic Acid]	29.3
C[C@H](C(=O)O)[C@H](c1ccc2c(c1)OC(CC1CCN([C@H](C)c3cc(C(F)(F)F)ccc3C(F)(F)F)CC1)CC2)C1CC1 (single isomer, unassigned) [Example 11, (2S,3R)-3-((S or R)-2-((1-((R)-1-(2,5-bis(trifluoromethyl)phenyl)ethyl)piperidin-4-yl)methyl)chroman-7-yl)-3-cyclopropyl-2-methylpropanoic Acid]	14.1
C[C@H](C(=O)O)[C@H](c1ccc2c(c1)OC(C1CC3CC1CN3[C@H](C)c1cc(F)ccc1C(F)(F)F)CC2)C1CC1 (single isomer, unassigned) [Example 20]	13.4
C[C@H](C(=O)O)[C@H](c1ccc2c(c1)OC(C1CC3CC1CN3[C@H](C)c1cc(F)ccc1C(F)(F)F)CC2)C1CC1 (single isomer, unassigned) [Example 21]	3.14
C[C@H](C(=O)O)[C@H](c1ccc2c(c1)OC(C1[C@@H]3CC[C@@H]1CN([C@@H](C)c1cc(C(F)(F)F)ccc1C(F)(F)F)C3)CC2)C1CC1 (single isomer, unassigned) [Example 24]	9.66
C[C@H](C(=O)O)[C@H](c1ccc2c(c1)OC(C1[C@@H]3CC[C@@H]1CN([C@@H](C)c1cc(C(F)(F)F)ccc1C(F)(F)F)C3)CC2)C1CC1 (single isomer, unassigned) [Example 25]	67.3
C[C@H](C(=O)O)[C@H](c1ccc2c(c1)OC(C1[C@@H]3CC[C@H]1CN([C@@H](C)c1cc(F)ccc1C(F)(F)F)C3)CC2)C1CC1 (single isomer, unassigned) [Example 26]	9.68
CC(C(=O)O)C(c1ccc2c(c1)OC(C1CC3CCCC(C1)N3C(C)c1cc(F)ccc1C(F)(F)F)CC2)C1CC1 (single isomer, unassigned) [Example 34]	29.4
CC(C(=O)O)C(c1ccc2c(c1)OC(C1CC3CCCC(C1)N3C(C)c1cc(F)ccc1C(F)(F)F)CC2)C1CC1 (single isomer, unassigned) [Example 35]	90.9

The next lines start with the values.

EC50 [nM]	SMILES
44.1	CC(c1cc(F)ccc1C(F)(F)F)N1CC2CC1CC2C1CCc2ccc([C@H](C3CC3)[C@H](C)C(=O)O)cc2O1 (mixture of isomers) [Example 39, (2S,3R)-3-cyclopropyl-3-((R or S)-2-((R or S,R or S)-2-((RS)-1-(5-fluoro-2-(trifluoromethyl)-phenyl)ethyl)-2-azabicyclo-[2.2.1]heptan-5-yl)chroman-7-yl)-2-methylpropanoic acid]
8.72	C[C@H](C(=O)O)[C@H](c1ccc2c(c1)OC(CCN(C)Cc1cc(C(F)(F)F)ccc1C(F)(F)F)CC2)C1CC1 (mixture of isomers) [Example 41, (2S,3R)-3-(2-(2-((2,5-bis-(trifluoromethyl)benzyl)(methyl)amino)ethyl)chroman-7-yl)-3-cyclopropyl-2-methylpropanic acid]
20.2	C[C@H](C(=O)O)[C@H](c1ccc2c(c1)OC(C1[C@@H]3CC[C@@H]1CN([C@@H](C)c1cc(F)ccc1C(F)(F)F)C3)CC2)C1CC1 (single isomer, unassigned) [Example 27, (2S,3R)-3-cyclopropyl-3-((2R or 2S)-2-((1R,5S)-3-((S)-1-(5-fluoro-2-(trifluoromethyl)phenyl)ethyl)-3-azabicyclo[3.2.1]-octan-8-yl)chroman-7-yl)-2-methylpropanoic acid]
28.7	C[C@H](C(=O)O)[C@H](c1ccc2c(c1)OC(C1[C@@H]3CC[C@@H]1CN([C@@H](C)c1cc(F)ccc1C(F)(F)F)C3)CC2)C1CC1 (single isomer, unassigned) [Example 28, (2S,3R)-3-cyclopropyl-3-((2R or 2S)-2-((1R,5S)-3-((S)-1-(5-fluoro-2-(trifluoromethyl)phenyl)ethyl)-3-azabicyclo[3.2.1]-octan-8-yl)chroman-7-yl)-2-methylpropanoic acid]
72.8	C[C@H](C(=O)O)[C@H](c1ccc2c(c1)OC(C1[C@@H]3CC[C@H]1CN([C@@H](C)c1cc(F)ccc1C(F)(F)F)C3)CC2)C1CC1 (single isomer, unassigned) [Example 29]
453	C[C@H](C(=O)O)[C@H](c1ccc2c(c1)OC(C1[C@@H]3CC[C@@H]1CN([C@@H](C)c1cc(F)ccc1C(F)(F)F)C3)CC2)C1CC1 (single isomer, unassigned) [Example 30, (2S,3R)-3-cyclopropyl-3-((2R or 2S)-2-((1R,5S)-3-((S)-1-(5-fluoro-2-(tri-fluoromethyl)phenyl)eth-yl)-3-azabicyclo[3.2.1]-octan-8-yl)chroman-7-yl)-2-methylpropanoic acid]
32.6	C[C@H](C(=O)O)[C@H](c1ccc2c(c1)OC(C1[C@@H]3CC[C@@H]1CN([C@@H](C)c1cc(F)ccc1C(F)(F)F)C3)CC2)C1CC1 (single isomer, unassigned) [Example 31, (2S,3R)-3-cyclopropyl-3-((2R or 2S)-2-((1R,5S)-3-((S)-1-(5-fluoro-2-(trifluoromethyl)phenyl)ethyl)-3-azabicyclo[3.2.1]-octan-8-yl)chroman-7-yl)-2-methylpropanoic acid]
12.3	CC(c1cc(Cl)ccc1C(F)(F)F)N1C[C@H]2CC1CC2C1CCc2ccc([C@H](C3CC3)[C@H](C)C(=O)O)cc2O1 (single isomer, unassigned) [Example 36, (2S,3R)-3-((S or R)-2-((R or S, R or S)-2-(1-(5-chloro-2-(trifluoromethyl)-phenyl)-ethyl)-2-azabicyclo[2.2.1]heptan-5-yl)chroman-7-yl)-3-cyclopropyl-2-methylpropanoic Acid]
